{"source": "patent US8846653B2", "about": "“Delta-tocotrienol treatment and prevention of pancreatic cancer” (University of South Florida, priority 2006, dated 2014)", "assay_type_in_all_cases": "cell-based, human", "key": {"[1]": {"system": "MiaPaCa-2 cells", "assay": "MTT assay of MiaPaCa2 cultures, single 50 μM dose", "set-up": "rel amt (relative value set to the control): unit not given here", "conditions": "MiaPaCa2, 50 μM; for MTT assay result, av-blank: average minus blank; for MTT assay result, av: average of 7 runs", "outline": "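Viability measured by MTT 48 or 120 hours post-treatment, with a vehicle-only (ethanol-extracted olive oil) culture as control. MiaPaCa-2 cultures received one 50 μM exposure to a tocotrienol, tocopherol, tocopherol succinate, geranylgeraniol or succinic acid.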"}, "[2]": {"system": "MiaPaCa-2 cells", "assay": "MTS assay of MiaPaCa2 cultures, single 50 μM dose", "conditions": "MiaPaCa2, 50 μM", "outline": "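This MTS viability assay used MiaPaCa2 cultures treated once with 50 μM compound or vehicle, with an untreated culture grown in parallel for comparison. Cells were maintained in DMEM supplemented with 10% FBS, 1% penicillin-streptomycin and 1% L-glutamine at 37° C. under 5% CO2 and humidity.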"}, "[3]": {"system": "BXPC3 cells", "assay": "MTT assay of BXPC3 cultures, single 50 μM dose", "set-up": "MTT assay result, run 1 / MTT assay result, run 2 / MTT assay result, run 3 / MTT assay result, run 4 / MTT assay result, run 5 / MTT assay result, run 6 / MTT assay result, run 7 / MTT assay result, av (average) / MTT assay result, av-blank / MTT assay result, av: unit not given here", "conditions": "BXPC3, 50 μM; for MTT assay result, av-blank: average minus blank", "outline": "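Viability measured by MTT assay 48 or 120 hours after one 50 μM treatment with tocol-family compounds, geranylgeraniol, succinic acid or vehicle, with untreated cultures in parallel. BXPC3 cells grown in FBS-supplemented medium, 37° C, humidified 5% CO2.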"}}}
{"smiles": "Cc1c(C)c2c(c(C)c1OC(=O)CCC(=O)O)CC[C@@](C)(CCC[C@H](C)CCC[C@H](C)CCCC(C)C)O2", "note": "[TS, tocopherol succinate]", "values": [{"measurement": "rel amt (relative value set to the control)", "setting": "[1]; 48 hours", "value": 48}, {"measurement": "MTT assay result, av-blank", "setting": "[1]; 48 hours", "value": 0.148}, {"measurement": "MTT assay result, av", "setting": "[1]; 48 hours", "value": 0.194}, {"measurement": "MTT assay result, run 1", "setting": "[1]; 48 hours", "value": 0.215}, {"measurement": "MTT assay result, run 2", "setting": "[1]; 48 hours", "value": 0.184}, {"measurement": "MTT assay result, run 3", "setting": "[1]; 48 hours", "value": 0.2}, {"measurement": "MTT assay result, run 4", "setting": "[1]; 48 hours", "value": 0.187}, {"measurement": "MTT assay result, run 5", "setting": "[1]; 48 hours", "value": 0.194}, {"measurement": "MTT assay result, run 6", "setting": "[1]; 48 hours", "value": 0.19}, {"measurement": "MTT assay result, run 7", "setting": "[1]; 48 hours", "value": 0.185}, {"measurement": "rel amt (relative value set to the control)", "setting": "[1]; 120 hours (5 days)", "value": 43}, {"measurement": "MTT assay result, av-blank", "setting": "[1]; 120 hours (5 days)", "value": 0.773}, {"measurement": "MTT assay result, av", "setting": "[1]; 120 hours (5 days)", "value": 0.825}, {"measurement": "MTT assay result, run 1", "setting": "[1]; 120 hours (5 days)", "value": 0.732}, {"measurement": "MTT assay result, run 2", "setting": "[1]; 120 hours (5 days)", "value": 0.776}, {"measurement": "MTT assay result, run 3", "setting": "[1]; 120 hours (5 days)", "value": 0.786}, {"measurement": "MTT assay result, run 4", "setting": "[1]; 120 hours (5 days)", "value": 0.714}, {"measurement": "MTT assay result, run 5", "setting": "[1]; 120 hours (5 days)", "value": 0.939}, {"measurement": "MTT assay result, run 6", "setting": "[1]; 120 hours (5 days)", "value": 0.859}, {"measurement": "MTT assay result, run 7", "setting": "[1]; 120 hours (5 days)", "value": 0.968}, {"measurement": "rel amt (relative value set to the control)", "setting": "[2]; 24 hours", "value": 96}, {"measurement": "MTS assay result, run 1", "setting": "[2]; 24 hours", "value": 0.24}, {"measurement": "MTS assay result, run 2", "setting": "[2]; 24 hours", "value": 0.211}, {"measurement": "MTS assay result, run 3", "setting": "[2]; 24 hours", "value": 0.226}, {"measurement": "MTS assay result, run 4", "setting": "[2]; 24 hours", "value": 0.172}, {"measurement": "MTS assay result, run 5", "setting": "[2]; 24 hours", "value": 0.221}, {"measurement": "MTS assay result, run 6", "setting": "[2]; 24 hours", "value": 0.201}, {"measurement": "MTS assay result, run 7", "setting": "[2]; 24 hours", "value": 0.214}, {"measurement": "MTS assay result, run 8", "setting": "[2]; 24 hours", "value": 0.228}, {"measurement": "MTS assay result, run 9", "setting": "[2]; 24 hours", "value": 0.214}, {"measurement": "rel amt (relative value set to the control)", "setting": "[2]; 48 hours", "value": 76}, {"measurement": "MTS assay result, run 1", "setting": "[2]; 48 hours", "value": 0.257}, {"measurement": "MTS assay result, run 2", "setting": "[2]; 48 hours", "value": 0.254}, {"measurement": "MTS assay result, run 3", "setting": "[2]; 48 hours", "value": 0.262}, {"measurement": "MTS assay result, run 4", "setting": "[2]; 48 hours", "value": 0.237}, {"measurement": "MTS assay result, run 5", "setting": "[2]; 48 hours", "value": 0.258}, {"measurement": "MTS assay result, run 6", "setting": "[2]; 48 hours", "value": 0.275}, {"measurement": "MTS assay result, run 7", "setting": "[2]; 48 hours", "value": 0.32}, {"measurement": "MTS assay result, run 8", "setting": "[2]; 48 hours", "value": 0.337}, {"measurement": "MTS assay result, run 9", "setting": "[2]; 48 hours", "value": 0.275}, {"measurement": "rel amt (relative value set to the control)", "setting": "[2]; 72 hours", "value": 207}, {"measurement": "MTS assay result, run 1", "setting": "[2]; 72 hours", "value": 0.998}, {"measurement": "MTS assay result, run 2", "setting": "[2]; 72 hours", "value": 0.962}, {"measurement": "MTS assay result, run 3", "setting": "[2]; 72 hours", "value": 1.016}, {"measurement": "MTS assay result, run 4", "setting": "[2]; 72 hours", "value": 0.887}, {"measurement": "MTS assay result, run 5", "setting": "[2]; 72 hours", "value": 0.936}, {"measurement": "MTS assay result, run 6", "setting": "[2]; 72 hours", "value": 0.897}, {"measurement": "MTS assay result, run 7", "setting": "[2]; 72 hours", "value": 0.85}, {"measurement": "MTS assay result, run 8", "setting": "[2]; 72 hours", "value": 0.801}, {"measurement": "MTS assay result, run 9", "setting": "[2]; 72 hours", "value": 0.918}, {"measurement": "rel amt (relative value set to the control)", "setting": "[3]; 48 hours", "value": 100}, {"measurement": "MTT assay result, av-blank", "setting": "[3]; 48 hours", "value": 0.229}, {"measurement": "MTT assay result, av (average)", "setting": "[3]; 48 hours, average of 7 runs", "value": 0.278}, {"measurement": "MTT assay result, run 1", "setting": "[3]; 48 hours", "value": 0.271}, {"measurement": "MTT assay result, run 2", "setting": "[3]; 48 hours", "value": 0.274}, {"measurement": "MTT assay result, run 3", "setting": "[3]; 48 hours", "value": 0.296}, {"measurement": "MTT assay result, run 4", "setting": "[3]; 48 hours", "value": 0.271}, {"measurement": "MTT assay result, run 5", "setting": "[3]; 48 hours", "value": 0.282}, {"measurement": "MTT assay result, run 6", "setting": "[3]; 48 hours", "value": 0.274}, {"measurement": "MTT assay result, run 7", "setting": "[3]; 48 hours", "value": 0.277}, {"measurement": "rel amt (relative value set to the control)", "setting": "[3]; 120 hours (5 days)", "value": 17}, {"measurement": "MTT assay result, av-blank", "setting": "[3]; 120 hours (5 days)", "value": 0.097}, {"measurement": "MTT assay result, av", "setting": "[3]; 120 hours (5 days), average of 7 runs", "value": 0.152}, {"measurement": "MTT assay result, run 1", "setting": "[3]; 120 hours (5 days)", "value": 0.192}, {"measurement": "MTT assay result, run 2", "setting": "[3]; 120 hours (5 days)", "value": 0.127}, {"measurement": "MTT assay result, run 3", "setting": "[3]; 120 hours (5 days)", "value": 0.142}, {"measurement": "MTT assay result, run 4", "setting": "[3]; 120 hours (5 days)", "value": 0.162}, {"measurement": "MTT assay result, run 5", "setting": "[3]; 120 hours (5 days)", "value": 0.116}, {"measurement": "MTT assay result, run 6", "setting": "[3]; 120 hours (5 days)", "value": 0.129}, {"measurement": "MTT assay result, run 7", "setting": "[3]; 120 hours (5 days)", "value": 0.199}]}
